From PMC6397651 (Journal of pharmaceutical and biomedical analysis, 2018)
“And” between values parts separate entries of the source, which are not always exact repeats. Identical values can stand only once.

Columns and labels:
[1] = Stability of analytes in rat plasma; assay type: in vitro ADME; settings: for Autosampler stability, % Accuracy / Short-term Stability, % Accuracy: 20°C, 24 hr; for Auto sampler stability / Mean freeze-thaw stability / Mean long term stability / Mean short term stability: range over LQC and HQC; for Short-term Stability, % Accuracy / Mean freeze-thaw stability / Mean long term stability / Mean short term stability / Long-term Stability, % Accuracy / Freeze-Thaw Stability, % Accuracy: rat plasma; for Long-term Stability, % Accuracy / Freeze-Thaw Stability, % Accuracy: −70 ± 10°C; for Long-term Stability, % Accuracy: 30 days; for Freeze-Thaw Stability, % Accuracy: three cycles
[2] = In-vivo pharmacokinetic study in rats: passive cannabis smoke inhalation; settings: for CL/F (apparent clearance): Rimonabant 3 mg/kg i.p.
[3] = male, Wistar, rat, plasma, ip, 3 mg/kg
[4] = THC, inhalation, 50 min smoke exposure, Wistar rats
[5] = male, Wistar, rat, plasma, inhaled or intranasal, 0.05 mg/kg

| SMILES | Autosampler stability, % Accuracy ([1]; HQC 80 ng/mL) | Autosampler stability, % Accuracy ([1]; LQC 0.3 ng/mL) | Auto sampler stability [1] | Short-term Stability, % Accuracy ([1]; HQC 80 ng/mL) | Short-term Stability, % Accuracy ([1]; LQC 0.3 ng/mL) | Mean freeze-thaw stability [1] | Mean long term stability [1] | Mean short term stability [1] | Long-term Stability, % Accuracy ([1]; HQC 80 ng/mL) | Long-term Stability, % Accuracy ([1]; LQC 0.3 ng/mL) | Freeze-Thaw Stability, % Accuracy ([1]; HQC 80 ng/mL) | Freeze-Thaw Stability, % Accuracy ([1]; LQC 0.3 ng/mL) | other results |
| --- | --- | --- | --- | --- | --- | --- | --- | --- | --- | --- | --- | --- | --- |
| C=C(C)[C@@H]1CCC(C)=C[C@H]1c1c(O)cc(CCCCC)cc1O [CBD, cannabidiol] | 96.80% | 103.60% | 96.80–103.60% | 99.60% | 97.50% | 105.21–108.50% | 103.30–106.50% | 97.50–99.60% | 103.30% | 106.50% | 105.21% | 108.50% |  |
| Cc1c(C(=O)NN2CCCCC2)nn(-c2ccc(Cl)cc2Cl)c1-c1ccc(Cl)cc1 [Rimonabant, rimonabant] | 102.30% | 104.50% | 102.30–104.50% | 104.30% | 95.70% | 106.25–109.50% | 96.90–99.40% | 95.70–104.30% | 99.40% | 96.90% | 109.50% | 106.25% | CL/F (apparent clearance) ([2]; Wistar rats): 2.0 L/h and 2.0 ± 0.3 L/h; CL/F (apparent clearance) ([2]; Wistar rats, listed as rimonabant): 2 L/h; AUC(0-inf) [2, 3]: 458 ng·h/mL; AUC(0-t) [2, 3]: 308 ± 55 ng·h/mL; Cmax [2, 3]: 88.6 ± 5.64 ng/mL; Tmax [2, 3]: 0.2 ± 0.07 h; half-life [2, 3]: 5.4 ± 0.85 h |
| CCCCCc1cc(O)c2c(c1)OC(C)(C)[C@@H]1CCC(C)=C[C@@H]21 [THC, delta-9-tetrahydrocannabinol] | 99.97% | 105.30% |  | 104.40% | 103.20% |  |  | 103.20–104.40% | 97.20% | 108.30% | 109.20% | 112.80% | CL (clearance) [2, 4]: 1.1 ± 0.26 L/h; Vss (volume of distribution at steady state) [2, 4]: 3.9 ± 2.07 L; AUC(0-inf) [2, 5]: 13.9 ± 3.8 ng·h/mL; AUC(0-t) [2, 5]: 12.2 ± 3 ng·h/mL; half-life [2, 5]: 3.7 ± 1.3 h; AUC(0-inf) ([2]; male, Wistar, rat, plasma, inhaled, 0.05 mg/kg): 13.9 ng·h/mL |
